# Laboratory results taken from ChEMBL document CHEMBL1130850, “Asymmetric synthesis and anti-HIV activity of L-carbocyclic 2',3'-didehydro-2',3'-dideoxyadenosine” (Bioorg Med Chem Lett, 1998).
# Tests used:
# [1] = tested on: CCRF-CEM; experiment: Compound was evaluated for its cytotoxicity against CEM cells.; format: functional, cell-based; details: Homo sapiens
# [2] = Compound was evaluated for its cytotoxicity against peripheral blood mononuclear (PBM) cells.; format: functional, cell-based; details: Homo sapiens
# [3] = Compound was evaluated for its anti-HIV activity in vitro in peripheral blood mononuclear (PBM) cells; format: functional; details: Homo sapiens
# [4] = tested on: Vero; experiment: Compound was evaluated for its cytotoxicity against vero cells.; format: functional, cell-based; details: Chlorocebus sabaeus
# [5] = tested on: CCRF-CEM; experiment: Compound was evaluated for its cytotoxicity expressed as IC50 against CEM cells.; format: functional, cell-based; details: Homo sapiens
SMILES,IC50 [1],IC50 [2],EC50 [3],IC50 [4],IC50 [5],EC90 [3]
OCC1C=CC(n2cnc3c(S)ncnc32)C1 (stereo unspecified),> 100 µM,> 100 µM,> 100 µM,> 100 µM,,
Nc1ncnc2c1ncn2C1C=CC(CO)C1 (stereo unspecified),,> 100 µM,2.4 µM,> 100 µM,> 100 µM,11.7 µM
Cc1cn([C@H]2C[C@H](N=[N+]=[N-])[C@@H](CO)O2)c(=O)[nH]c1=O [ZIDOVUDINE],,> 100 µM,0.004 µM,,,
